Test results from patent US20140100419A1, “ACTIVE VITAMIN D OR ANALOGS THEREOF FOR USE IN IN VIVO OR IN VITRO FERTILIZATION” (priority 2011, published 2014).

System: human spermatozoa
Test: Intracellular calcium [Ca2+]i in fura-2 loaded human spermatozoa
Assay type: cell-based
Description: Calcium measurements and the acrosome reaction were performed on motile spermatozoa isolated after percoll density gradient centrifugation (Supra sperm gradients, (ORIGO)) following the manufacturer's instructions. Briefly, spermatozoa were separated from seminal plasma by centrifugation on a discontinuous percoll gradient using a two-step gradient comprising 2 ml layers of 55% and 80% percoll respectively. Semen was placed on the top of the gradient and centrifuged at 300×g for 25 min. The spermatozoa at the base of the 80% fraction were collected and washed with a 5 ml volume of capacitating medium (CaCl2 1.5 mM, KCl 4.3 mM, NaHCO3 31 mM, HEPES 15 mM, Human Serum Albumin 5 mg/ml, Glucose 4.5 mM, Sodium Pyruvate 0.8 mM, Synthetic Serum Replacement, 0.5 ug/ml human recombinant insulin (Sperm preparation media (ORIGO)) and finally resuspended in capacitating media and used for the following assays of calcium measurements and acrosome reaction. All men were part of the above mentioned ongoing surveillance program of semen quality among young Danish men and included after approval from the local ethical committee (No. H-4-2010-016).
Semen samples were separated by percoll density gradient centrifugation to ensure viable and motile spermatozoa and resuspended in capacitating media for 1.5 hours. Afterwards, loaded with 3 μM of the fluorescent probe (intracellular calcium binding) fura-2/AM (Invitrogen, USA) for 30 min, centrifuged (10 min at 300 g) and washed with Krebs-Ringer buffer (120 mM NaCl, 15 mM NaHCO3, 5 mM KCl, 1 mM CaCl2, 5 mM Na2HPO4, 1 mM MgCl2 pH 7.3). […] Subsequently, 80 μl of the sperm sample was diluted in 920 μl Krebs-Ringer buffer and loaded on polylysine-coated chambers to minimize movement of the spermatozoa (Lab-Tek; Nalge Nunc International, USA). A Zeiss Axiovert 135 microscope equipped with a Zeiss Achrostigmat 40×1.3 NA objective was used to acquire images from the fluorescent probe. Excitation was obtained by a Polychrome Villuminator from Till Photonics (Germany) and images were acquired using a Cool Snap CCD camera (Photometrics, USA) from Robert Scientific (Malaysia). For measurements of [Ca2+]i, the excitation wavelengths were 338 and 380 nm, measuring emission above 510 nm using a cut-off filter. […] After background subtraction, ratio images were formed using MetaFluor software.
All experiments started by using low magnification to ensure visibility of several spermatozoa simultaneously. […] All measurements of [Ca^2+], were based upon evaluation of at least three spermatozoa simultaneously (see exact number in figure legends), and were repeated in at least three separate experiments. We used 10 different semen donors to ensure that all experiments were reproduced on semen samples from at least two different men.

C=C1CC[C@H](O)C/C1=C/C=C1\CCC[C@]2(C)[C@@H]([C@H](C)CCCC(C)(C)O)CC[C@@H]12 [25-OH D3, 25-OH Vitamin D3]
increase in [Ca2+]i (25-OH D3 100 nM): unable to elicit an increase
increase of [Ca2+]i (Example 4, 25-OHD3 in the nanomolar range): unable to increase [Ca^2+], substantially
increase of [Ca2+]i (Example 4, higher concentrations of 25-OHD3 (1 μM, FIG. 7)): marked but delayed increase

C[C@H](CCC(=O)O)C[C@H](C)C[C@H](C)C(=O)/C=C(\O)[C@H](C)C[C@H](C)C/C=C/[C@@H](C)[C@@H](O)[C@@H](C)[C@@H](O)C[C@@H]1CC[C@@](C)([C@H]2CC[C@@](C)([C@@H](C)O)O2)O1 [Ionomycin, ionomycin]
amplitude of calcium response from baseline (ionomycin 500 nM, calcium free media with EGTA): < 3 fold

C=C1/C(=C\C=C2/CCC[C@]3(C)[C@@H]([C@H](C)/C=C/[C@@H](O)C4(C(=O)OCCCC)CC4)CC[C@@H]23)C[C@@H](O)C[C@@H]1O [ZK159222]
effect on calcium increase by 1,25(OH)2D3 (Example 4, pre-treatment with 100 nM ZK159222 (FIG. 5)): unable to influence
effect of antagonist on calcium response to 1,25(OH)2D3 (ZK159222 0.1-100 μM, data not shown): unable to abrogate or suppress

CC(=O)[C@H]1CC[C@H]2[C@@H]3CCC4=CC(=O)CC[C@]4(C)[C@H]3CC[C@]12C [progesterone]
time until calcium level restored to baseline after initiation of treatment (10 μM progesterone after nifedipine 10 μM pretreatment): 9 min
increase in [Ca2+]i (calcium free media with 5 μM EGTA): could not induce an increase
increase in [Ca2+]i after addition of 1 mM calcium (calcium free media, calcium added after treatment): comparable to the increase observed in the normal calcium containing Krebs Ringer solution

COc1ccc2c(c1)CC[C@@H]1[C@@H]2CC[C@]2(C)[C@@H](NCCCCCCN3C(=O)C=CC3=O)CC[C@@H]12 [U73122, 1-[6-[[17fi-3-methoxyestra-1,3,5(10)-trien-17-yl]amino]hexyl]-lH-pyrrole-2,5-dione]
increase of baseline [Ca2+]i (10 μM U73122): more than 5 fold
proportion of spermatozoa with increased baseline [Ca2+]i (10 μM U73122): > 80%
effect of PLC inhibition on the effect of progesterone (U73122, data not shown): unable to abrogate

C/C=C(/C)C(=O)O[C@H]1C(C)=C2[C@H]([C@@H]1OC(=O)CCCCCCC)[C@@](C)(OC(C)=O)C[C@H](OC(=O)CCC)[C@@]1(O)[C@H]2OC(=O)[C@@]1(C)O [thapsigargin]
stable plateau of calcium concentration versus baseline (thapsigargin 4 μM, nine minutes after exposure): 3 fold
effect on calcium response to 1,25(OH)2D3 (thapsigargin <1 μM): unable to abrogate

C=C1/C(=C\C=C2/CCC[C@]3(C)[C@@H]([C@H](C)CCCC(C)(C)O)CC[C@@H]23)C[C@@H](O)C[C@H]1O [1β,25(OH)2D3, 1β,25-(OH)2D3]
effect on calcium effect of progesterone (Example 4): did not abrogate
effect on calcium response to 1,25(OH)2D3 (Example 4, non-genomic competitive antagonist): abrogated the response to 1,25(OH)2D3 completely
effect of pretreatment on calcium response to 1,25(OH)2D3 (VD response) (pretreatment with 1-40 μM 1β,25(OH)2D3): blocked completely
